US20240294467A1, “USP9X Inhibitors” (ProDeg, LLC, priority 2021, published 2024)
One block for each molecule: values may come before it.

What was measured:
[1] = target: USP2 (Homo sapiens (Human), UniProt O75604); assay: DUB selectivity panel using ubiquitin-AMC; type: biochemical
Source text: (§1) Compounds were screened for DUB inhibitory and apoptotic activity against other deubiquitylases in a DUB selectivity panel using ubiquitin-AMC (BPS Bioscience Inc.).

[2] = target: USP25 (Homo sapiens (Human), UniProt Q9UHP3); assay: DUB selectivity panel using ubiquitin-AMC; type: biochemical; conditions: 5 μM compound, 500 nM Ubiquitin-AMC
Source text: as §1

[3] = target: USP30 (Homo sapiens (Human), UniProt Q70CQ3); assay: DUB selectivity panel using ubiquitin-AMC; type: biochemical; conditions: 5 μM compound, 500 nM Ubiquitin-AMC
Source text: as §1

[4] = tested on: BT-549 cancer cells; assay: WST-1 cell viability assay; type: cell-based, human; conditions: BT-549 cells
Experimental: Compound Compound 9A was tested for the ability to inhibit the proliferation of Mia-Paca-2 pancreatic cancer cells. Mia-Paca-2 and MDA-MB-231 cells were seeded into the wells of a 96 well tissue culture plate in complete medium (10% fetal calf serum) and incubated overnight at 37° C./5% CO2). The medium was exchanged for fresh medium containing varying concentrations of Compound 9A and the plate was incubated for 72 hours at 37° C./5% CO2. The viability of cells at the end of this incubation was assessed with the WST-1 reagent. To 10 ml of warm (37° C.) complete medium, 1 ml WST-1 reagent was added. The medium from the wells of the plate with the Mia-Paca-2 cells was removed and replaced with 100 μL of the WST-1 reagent in complete medium. The plate was incubated at 37 37° C./5% CO2. At timed intervals the absorbance at 450 nm was determined for each well in a UVNis plate reader. For each well the slope of the plot of the absorbance 450 nm vs time was determined. The readings were normalized to that of the wells for the untreated control and a dose-response curve was plotted. A fit to the data was made from a four parameter, variable slope program (GraphPad Prism) and the IC50 was determined.
The same procedures were also applied to the compounds Compound 7A, Compound 6A, and Compound 8A to test their inhibitory activities against RKO colon, Mia-Paca-2 pancreatic and BT-549 cancer cells.

[5] = tested on: 66 cancer cell lines; assay: ONCOLINES Profiler, whole panel; type: cell-based
Source text: The sensitivities of multiple cancer cells can be determined by screening the compounds on a cancer cell line panel, such as an ONCOLINES™ Profiler (Netherlands Translational Research Center) assayed with various tumor cell lines. For more information on ONCOLINES™ methods, see https://www.oncolines.com/oncolines/oncolines-explained-facts/. […] For example, Compound 7A inhibited the proliferation of 57 of the 66 cell lines being tested. […] “A tumor cell line sensitive to the compounds” is referred to that the proliferation of a tumor cell line, when contacted with the compounds, is inhibited by at least 50%, at least 60%, at least 70%, at least 80%, at least 85%, at least 90%, at least 91%, at least 92%, at least 93%, at least 94%, at least 95%, at least 96%, at least 97%, at least 98%, at least 99%, or 100%.
(§2) The compounds were profiled on an ONCOLINES™ Profiler (Netherlands Translational Research Center) assayed with 66 cancer cell lines to determine if they were capable of inhibiting the proliferation of these cancer cells.
To further evaluate potency of the compounds, they were compared with the USP9X inhibitor WP 1130 by screening both the compounds and WP1130 on a 66-cancer cell line panel ONCOLINES™ Profiler.

[6] = tested on: A-204; assay: ONCOLINES Profiler proliferation; type: cell-based; conditions: Homo sapiens, A204; A-204, rhabdomyosarcoma
Source text: as §2

[7] = tested on: A375; assay: ONCOLINES Profiler proliferation; type: cell-based; conditions: Homo sapiens, A-375; A375, malignant melanoma
Source text: as §2

[8] = tested on: A388; assay: ONCOLINES Profiler proliferation; type: cell-based; conditions: A388, epidermal carcinoma
Source text: as §2

[9] = tested on: AN3 CA; assay: ONCOLINES Profiler proliferation; type: cell-based; conditions: Homo sapiens, endometrium adenocarcinoma
Source text: as §2

[10] = tested on: Daoy; assay: ONCOLINES Profiler proliferation; type: cell-based; conditions: Homo sapiens, medulloblastoma
Source text: as §2

[11] = tested on: DoTc2 4510; assay: ONCOLINES Profiler proliferation; type: cell-based; conditions: Homo sapiens; DoTc2 4510, cervix carcinoma
Source text: as §2

[12] = tested on: HCT-116; assay: ONCOLINES Profiler proliferation; type: cell-based; conditions: Homo sapiens; HCT-116, colon carcinoma
Source text: as §2

[13] = tested on: Jurkat E6.1; assay: ONCOLINES Profiler proliferation; type: cell-based; conditions: Homo sapiens; Jurkat E6.1, T cell leukemia
Source text: as §2

[14] = tested on: K-562; assay: ONCOLINES Profiler proliferation; type: cell-based; conditions: Homo sapiens, K562; K-562, CML
Source text: as §2

[15] = tested on: MIA PaCa-2; assay: ONCOLINES Profiler proliferation; type: cell-based; conditions: Homo sapiens; MIA PaCa-2, pancreatic ductal carcinoma
Source text: as §2

[16] = tested on: NCI-H460; assay: ONCOLINES Profiler proliferation; type: cell-based; conditions: Homo sapiens; NCI-H460, large cell lung carcinoma
Source text: as §2

[17] = tested on: OVCAR-3; assay: ONCOLINES Profiler proliferation; type: cell-based; conditions: Homo sapiens; OVCAR-3, ovary adenocarcinoma
Source text: as §2

[18] = tested on: PA-1; assay: ONCOLINES Profiler proliferation; type: cell-based; conditions: Homo sapiens; PA-1, ovary teratocarcinoma
Source text: as §2

[19] = tested on: SK-N-AS; assay: ONCOLINES Profiler proliferation; type: cell-based; conditions: Homo sapiens, neuroblastoma
Source text: as §2

[20] = tested on: SR; assay: ONCOLINES Profiler proliferation; type: cell-based; conditions: Homo sapiens, large cell immunoblastic lymphoma
Source text: as §2

[21] = tested on: SUP-T1; assay: ONCOLINES Profiler proliferation; type: cell-based; conditions: Homo sapiens; SUP-T1, T-cell lymphoblastic lymphoma
Source text: as §2

[22] = tested on: VA-ES-BJ; assay: ONCOLINES Profiler proliferation; type: cell-based; conditions: epithelioid carcinoma, bone
Source text: as §2

[23] = tested on: malignant melanoma cell line MWo; assay: ONCOLINES Profiler proliferation; type: cell-based
Source text: as §2

[24] = tested on: PD-L1; assay: Western blot of PD-L1 in MIA PaCa-2 cells; type: cell-based; conditions: 24 hours
Experimental: MIA PaCa-2 cells expressing detectable levels of PD-L1 are treated with Compound 7A at various concentrations for 24 hours, and the ensuing level of PD-L1 are determined by Western blot to decrease by about 50% after the treatment.

[25] = 5 μM compound, 500 nM Ubiquitin-AMC

Sequence of USP2 (O75604 whole entry): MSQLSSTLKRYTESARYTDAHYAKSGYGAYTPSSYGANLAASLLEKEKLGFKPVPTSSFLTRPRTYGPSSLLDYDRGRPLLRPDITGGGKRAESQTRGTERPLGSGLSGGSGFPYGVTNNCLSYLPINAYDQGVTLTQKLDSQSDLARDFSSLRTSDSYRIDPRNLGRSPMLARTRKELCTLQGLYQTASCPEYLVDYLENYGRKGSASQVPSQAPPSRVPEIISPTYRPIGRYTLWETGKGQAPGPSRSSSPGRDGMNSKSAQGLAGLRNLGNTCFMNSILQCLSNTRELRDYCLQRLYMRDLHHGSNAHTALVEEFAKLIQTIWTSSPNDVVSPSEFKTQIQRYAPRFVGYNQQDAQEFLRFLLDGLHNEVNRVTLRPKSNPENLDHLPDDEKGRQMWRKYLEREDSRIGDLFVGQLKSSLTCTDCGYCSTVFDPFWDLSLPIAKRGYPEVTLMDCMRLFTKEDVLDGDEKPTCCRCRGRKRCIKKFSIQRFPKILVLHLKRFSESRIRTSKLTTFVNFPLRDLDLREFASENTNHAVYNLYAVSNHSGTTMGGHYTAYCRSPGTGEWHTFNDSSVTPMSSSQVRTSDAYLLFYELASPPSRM
Sequence of USP25 (Q9UHP3 whole entry): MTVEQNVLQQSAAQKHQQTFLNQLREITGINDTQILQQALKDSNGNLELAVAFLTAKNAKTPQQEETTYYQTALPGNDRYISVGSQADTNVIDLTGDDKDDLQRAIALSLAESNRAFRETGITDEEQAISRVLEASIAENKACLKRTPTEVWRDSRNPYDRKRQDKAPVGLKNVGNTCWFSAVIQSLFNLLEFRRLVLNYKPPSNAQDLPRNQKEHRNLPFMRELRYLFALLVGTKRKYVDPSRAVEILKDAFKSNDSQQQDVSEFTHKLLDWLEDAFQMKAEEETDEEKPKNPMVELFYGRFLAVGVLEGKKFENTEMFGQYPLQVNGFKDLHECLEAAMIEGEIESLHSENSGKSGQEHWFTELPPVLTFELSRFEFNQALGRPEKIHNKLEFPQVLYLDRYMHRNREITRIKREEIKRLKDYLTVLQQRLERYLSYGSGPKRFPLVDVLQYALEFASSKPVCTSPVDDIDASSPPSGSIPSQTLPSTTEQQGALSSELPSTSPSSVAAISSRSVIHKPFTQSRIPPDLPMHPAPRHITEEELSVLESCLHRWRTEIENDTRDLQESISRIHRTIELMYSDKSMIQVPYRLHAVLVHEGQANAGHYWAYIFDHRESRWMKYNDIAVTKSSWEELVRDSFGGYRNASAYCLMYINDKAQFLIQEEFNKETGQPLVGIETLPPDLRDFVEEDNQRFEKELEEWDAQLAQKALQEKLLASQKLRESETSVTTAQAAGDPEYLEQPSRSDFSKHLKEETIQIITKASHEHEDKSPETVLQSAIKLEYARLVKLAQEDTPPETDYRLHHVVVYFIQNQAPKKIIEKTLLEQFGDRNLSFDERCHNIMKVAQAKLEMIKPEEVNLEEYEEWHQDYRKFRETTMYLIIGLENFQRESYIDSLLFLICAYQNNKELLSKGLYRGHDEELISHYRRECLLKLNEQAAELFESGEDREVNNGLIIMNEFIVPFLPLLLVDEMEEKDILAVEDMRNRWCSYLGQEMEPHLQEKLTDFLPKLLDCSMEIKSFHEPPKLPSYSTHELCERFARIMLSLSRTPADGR
Sequence of USP30 (Q70CQ3 whole entry): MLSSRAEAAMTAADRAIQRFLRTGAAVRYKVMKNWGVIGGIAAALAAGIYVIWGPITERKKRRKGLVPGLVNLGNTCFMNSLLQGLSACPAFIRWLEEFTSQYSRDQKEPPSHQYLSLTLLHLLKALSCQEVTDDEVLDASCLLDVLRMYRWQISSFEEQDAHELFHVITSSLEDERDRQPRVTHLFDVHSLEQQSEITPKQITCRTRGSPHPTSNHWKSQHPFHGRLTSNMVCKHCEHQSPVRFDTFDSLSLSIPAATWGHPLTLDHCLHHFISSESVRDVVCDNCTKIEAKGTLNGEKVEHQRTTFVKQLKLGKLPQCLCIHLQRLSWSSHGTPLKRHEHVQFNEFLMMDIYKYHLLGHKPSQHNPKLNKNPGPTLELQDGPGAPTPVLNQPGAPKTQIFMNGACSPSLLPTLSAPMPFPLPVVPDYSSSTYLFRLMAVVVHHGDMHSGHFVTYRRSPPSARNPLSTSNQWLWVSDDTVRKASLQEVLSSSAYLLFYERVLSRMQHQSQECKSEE

IC50 [1]: > 50 µM | inhibition at 5 µM [1, 25]: 0% | inhibition of USP2 [1, 25]: no detectable effect | inhibition at 5 µM [2]: 0% | inhibition of USP25 [2]: no detectable effect | inhibition at 5 µM [3]: < 5%
SMILES: CN1CCOc2ccc(cc2)C(=O)NCc2cccc(c2)C(=O)N[C@@H](CC(C)(C)C)C(=O)Nc2ccc(cc2)CCN(C)C(=O)CC(C)(C)CC1=O [Compound 5A]

IC50 [7]: 2.02 µM | IC50 [12]: 2.39 µM | IC50 [13]: 0.548 µM | IC50 [14]: 0.486 µM | IC50 [15]: 0.79 µM | IC50 [16]: 2.09 µM | IC50 [17]: 2.4 µM | IC50 [19]: 1.72 µM | IC50 [23]: > 32 µM
SMILES: CN1CCOc2ccc(cc2)C(=O)NCc2ccc(F)c(c2)C(=O)N[C@@H](CC(C)(C)C)C(=O)Nc2ccc(cc2)CCN(C)C(=O)CC(C)(C)CC1=O [Compound 7A]
cell viability [4]: significant decreases | cancer cell lines sensitive / proliferation inhibited, of 66 ([5]; 66 cell lines tested): 57 | activity ([5]; in 3 of 66 cell lines, high Bcl-xL): inactive | fold more potent than WP 1130 ([5]; in 12 of 66 cell lines): about 4 fold | IC50 [6]: 1.36 µM | IC50 [8]: 2.39 µM | IC50 [9]: 0.66 µM | IC50 [10]: 3.38 µM | IC50 [11]: 0.963 µM | IC50 [18]: 2.07 µM | IC50 [20]: 1.58 µM | IC50 [21]: 4.29 µM | IC50 [22]: 0.682 µM | decrease of level of PD-L1 [24]: about 50%
